Measured values as given in patent publication US20250221410A1, “SUBSTITUTED 2-C-AZINES AND SALTS THEREOF, AND USE THEREOF AS HERBICIDAL ACTIVE SUBSTANCES” (BAYER AKTIENGESELLSCHAFT, priority 2022, published 2025).

Tests used:
Assay type in all cases: in vivo
[1] = system: DIGSA: Digitaria sanguinalis; assay: Pre-emergence herbicide efficacy at 80 g/ha, DIGSA; conditions: scored visually after about 3 weeks
Source text: (§1) Seeds of monocotyledonous and dicotyledonous weed plants and crop plants were placed in plastic or organic planting pots and covered with soil. The compounds of the invention, formulated in the form of wettable powders (WP) or as emulsion concentrates (EC), were then applied to the surface of the covering soil as aqueous suspension or emulsion with addition of 0.5% additive at a water application rate equivalent to 600 l/ha. After the treatment, the pots were placed in a greenhouse and kept under good growth conditions for the test plants. After about 3 weeks, the efficacy of the preparations was scored visually in comparison with untreated controls as percentages. For example, 100% activity=the plants have died, 0% activity=like control plants. Tables D1 to D12 below show the effects of selected compounds of the general formula (I) according to Table 1 on various harmful plants and an application rate corresponding to 80 g/ha, which were obtained by the experimental procedure mentioned above.

[2] = system: ABUTH: Abutilon theophrasti; assay: Post-emergence herbicidal efficacy at 1280 g/ha, ABUTH; conditions: rated visually after about 3 weeks vs untreated controls, 100% = plants have died, 0% = like control plants
How it was run: (§2)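 Weeds grown in sandy loam in the greenhouse were sprayed at the one-leaf stage, 2 to 3 weeks after sowing, with WP or EC formulations in water plus 0.5% additive at 600 L/ha. Damage was scored visually about 3 weeks later against untreated controls (0% = like control, 100% = plants dead).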

[3] = system: ECHCG: Echinochloa crus-galli; assay: Post-emergence herbicidal efficacy at 1280 g/ha, ECHCG; conditions: rated visually after about 3 weeks vs untreated controls, 100% = plants have died, 0% = like control plants
How it was run: as §2

[4] = system: AMARE: Amaranthus retroflexus; assay: Pre-emergence herbicide efficacy at 80 g/ha, AMARE; conditions: scored visually after about 3 weeks
How it was run: (§3)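 Seeds sown in pots and covered with soil received WP or EC formulations sprayed onto the soil surface at 80 g/ha, 600 l/ha water, with 0.5% additive. After about 3 weeks in greenhouse, efficacy was visually scored as percent versus untreated controls (100% = plants dead, 0% = like control).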

LOLRI: Lolium rigidum = assay: Pre-emergence herbicide efficacy at 1280 g/ha, LOLRI; conditions: visual scoring after about 3 weeks vs untreated controls
Source text: (§4) Seeds of mono- and dicotyledonous weed plants were placed in plastic pots in sandy loam soil (doubly sown with one species each of mono- or dicotyledonous weed plants per pot) and covered with soil. The compounds of the invention, formulated in the form of wettable powders (WP) or as emulsion concentrates (EC), were then applied to the surface of the covering soil as aqueous suspension or emulsion with addition of 0.5% additive at a water application rate of 600 litres per hectare (converted). After the treatment, the pots were placed in a greenhouse and kept under good growth conditions for the test plants. After about 3 weeks, the efficacy of the preparations was scored visually in comparison with untreated controls as percentages. For example, 100% activity=the plants have died, 0% activity=like control plants. Tables C1 to C12 below show the effects of selected compounds of the general formula (I) according to Table 1 on various harmful plants and at an application rate corresponding to 1280 g/ha, which were obtained by the trial procedure specified above.

KCHSC: Kochia scoparia [5] = assay: Pre-emergence herbicide efficacy at 80 g/ha, KCHSC; conditions: scored visually after about 3 weeks
Source text: as §1

STEME: Stellaria media [6] = assay: Pre-emergence herbicide efficacy at 1280 g/ha, STEME; conditions: visual scoring vs untreated controls
How it was run: (§5)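 Pre-emergence pot test in sandy loam: WP or EC formulations sprayed onto covering soil after sowing, as aqueous suspension/emulsion with 0.5% additive at 600 L/ha water. Plants grown in greenhouse; after about 3 weeks, efficacy scored visually as % versus untreated controls (100% = dead, 0% = like control).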

SETVI: Setaria viridis [7] = assay: Post-emergence herbicidal efficacy at 1280 g/ha, SETVI; conditions: visual rating about 3 weeks after treatment vs untreated controls
How it was run: as §2

[8] = system: AMARE: Amaranthus retroflexus; assay: Pre-emergence herbicide efficacy at 1280 g/ha, AMARE; conditions: visual scoring after about 3 weeks vs untreated controls
How it was run: as §5

[9] = system: ABUTH: Abutilon theophrasti; assay: Pre-emergence herbicide efficacy at 1280 g/ha, ABUTH; conditions: visual scoring after about 3 weeks vs untreated controls
How it was run: as §5

POAAN: Poa annua [10] = assay: Post-emergence herbicidal efficacy at 1280 g/ha, POAAN; conditions: visual rating about 3 weeks after treatment vs untreated controls
How it was run: as §2

POAAN: Poa annua [11] = assay: Pre-emergence herbicide efficacy at 1280 g/ha, POAAN; conditions: visual scoring after about 3 weeks vs untreated controls
How it was run: as §5

[12] = system: MATIN: Matricaria inodora; assay: Post-emergence herbicidal efficacy at 1280 g/ha, MATIN; conditions: visual rating about 3 weeks after treatment vs untreated controls
Procedure: Seeds of mono- and dicotyledonous weed plants were placed in plastic pots in sandy loam soil (doubly sown with in each case one species of mono- or dicotyledonous weed plants per pot), covered with soil and cultivated in a greenhouse under controlled growth conditions. 2 to 3 weeks after sowing, the test plants were treated at the one-leaf stage. The compounds of the invention, formulated in the form of wettable powders (WP) or as emulsion concentrates (EC), were applied to the green parts of the plants as aqueous suspension or emulsion with addition of 0.5% additive at a water application rate equivalent to 600 litres per hectare. After the test plants had been kept in the greenhouse under optimum growth conditions for about 3 weeks, the activity of the preparations was rated visually in comparison to untreated controls. For example, 100% activity=the plants have died, 0% activity=like control plants. Tables A1 to A12 below show the effects of selected compounds of the general formula (I) according to Table 1 on various harmful plants and at an application rate corresponding to 1280 g/ha, which were obtained by the trial procedure specified above.

[13] = system: MATIN: Matricaria inodora; assay: Pre-emergence herbicide efficacy at 80 g/ha, MATIN; conditions: scored visually after about 3 weeks
Source text: as §1

[14] = system: AMARE: Amaranthus retroflexus; assay: Post-emergence herbicidal efficacy at 1280 g/ha, AMARE; conditions: rated visually after about 3 weeks vs untreated controls, 100% = plants have died, 0% = like control plants
How it was run: as §2

[15] = system: ABUTH: Abutilon theophrasti; assay: Pre-emergence herbicide efficacy at 80 g/ha, ABUTH; conditions: scored visually after about 3 weeks
Source text: as §1

SETVI: Setaria viridis [16] = assay: Pre-emergence herbicide efficacy at 80 g/ha, SETVI; conditions: scored visually after about 3 weeks
Source text: as §1

[17] = system: MATIN: Matricaria inodora; assay: Pre-emergence herbicide efficacy at 1280 g/ha, MATIN; conditions: visual scoring after about 3 weeks vs untreated controls
How it was run: as §5

VIOTR: Viola tricolor [18] = assay: Post-emergence herbicidal efficacy at 80 g/ha, VIOTR; conditions: visual rating about 3 weeks after treatment vs untreated controls
Procedure: Seeds of monocotyledonous and dicotyledonous weeds and crop plants were placed in sandy loam in plastic or organic planting pots, covered with soil and cultivated in a greenhouse under controlled growth conditions. 2 to 3 weeks after sowing, the test plants were treated at the one-leaf stage. The compounds of the invention, formulated in the form of wettable powders (WP) or as emulsion concentrates (EC), were then sprayed onto the green parts of the plants as aqueous suspension or emulsion with addition of 0.5% additive at a water application rate of 600 l/ha (converted). After the test plants had been kept in the greenhouse under optimum growth conditions for about 3 weeks, the activity of the preparations was rated visually in comparison to untreated controls. For example, 100% activity=the plants have died, 0% activity=like control plants. Tables B1 to B10 below show the effects of selected compounds of the general formula (I) according to Table 1 on various harmful plants and an application rate corresponding to 80 g/ha, which were obtained by the experimental procedure mentioned above.

[19] = system: ALOMY: Alopecurus myosuroides; assay: Pre-emergence herbicide efficacy at 1280 g/ha, ALOMY; conditions: visual scoring after about 3 weeks vs untreated controls
Source text: as §4

VERPE: Veronica persica [20] = assay: Pre-emergence herbicide efficacy at 1280 g/ha, VERPE; conditions: visual scoring vs untreated controls
How it was run: as §5

VERPE: Veronica persica [21] = assay: Post-emergence herbicidal efficacy at 1280 g/ha, VERPE; conditions: visual rating about 3 weeks after treatment vs untreated controls
How it was run: as §2

[22] = system: DIGSA: Digitaria sanguinalis; assay: Pre-emergence herbicide efficacy at 1280 g/ha, DIGSA; conditions: visual scoring after about 3 weeks vs untreated controls
How it was run: as §5

SETVI: Setaria viridis [23] = assay: Pre-emergence herbicide efficacy at 1280 g/ha, SETVI; conditions: visual scoring vs untreated controls
How it was run: as §5

STEME: Stellaria media [24] = assay: Post-emergence herbicidal efficacy at 1280 g/ha, STEME; conditions: visual rating about 3 weeks after treatment vs untreated controls
How it was run: as §2

VERPE: Veronica persica [25] = assay: Pre-emergence herbicide efficacy at 80 g/ha, VERPE; conditions: scored visually after about 3 weeks
How it was run: as §3

[26] = system: ECHCG: Echinochloa crus-galli; assay: Pre-emergence herbicide efficacy at 1280 g/ha, ECHCG; conditions: visual scoring after about 3 weeks vs untreated controls
How it was run: as §5

KCHSC: Kochia scoparia [27] = assay: Post-emergence herbicidal efficacy at 1280 g/ha, KCHSC; conditions: visual rating about 3 weeks after treatment vs untreated controls
How it was run: as §2

VERPE: Veronica persica [28] = assay: Post-emergence herbicidal efficacy at 80 g/ha, VERPE; conditions: visual rating about 3 weeks after treatment vs untreated controls
How it was run: (§6)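 Sow in sandy loam and grow in the greenhouse for 2 to 3 weeks. Spray the green parts at the one-leaf stage with a WP or EC suspension or emulsion plus 0.5% additive at 600 l/ha water. Keep plants about 3 weeks, then score damage visually against controls.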

KCHSC: Kochia scoparia [29] = assay: Pre-emergence herbicide efficacy at 1280 g/ha, KCHSC; conditions: visual scoring after about 3 weeks vs untreated controls
How it was run: as §5

VIOTR: Viola tricolor [30] = assay: Pre-emergence herbicide efficacy at 80 g/ha, VIOTR; conditions: scored visually after about 3 weeks
Source text: as §1

[31] = system: DIGSA: Digitaria sanguinalis; assay: Post-emergence herbicidal efficacy at 1280 g/ha, DIGSA; conditions: rated visually after about 3 weeks vs untreated controls, 100% = plants have died, 0% = like control plants
How it was run: as §2

[32] = system: AMARE: Amaranthus retroflexus; assay: Post-emergence herbicidal efficacy at 80 g/ha, AMARE; conditions: visual rating about 3 weeks after treatment vs untreated controls
How it was run: as §6

POLCO = assay: Pre-emergence herbicide efficacy at 80 g/ha, POLCO; conditions: Polygonum convolvulus, scored visually after about 3 weeks
Source text: as §1

SMILES	Post-emergence efficacy at 1280 g/ha against ABUTH in % [2]	Post-emergence efficacy at 1280 g/ha against ECHCG in % [3]	Pre-emergence efficacy against AMARE in % [4]	Pre-emergence efficacy against STEME in % (STEME: Stellaria media [6])	Post-emergence efficacy against SETVI (SETVI: Setaria viridis [7])	Pre-emergence efficacy against AMARE [8]	Pre-emergence efficacy against ABUTH [9]	Post-emergence efficacy against POAAN (POAAN: Poa annua [10])	Pre-emergence efficacy against POAAN (POAAN: Poa annua [11])	Post-emergence efficacy against MATIN [12]	Post-emergence efficacy at 1280 g/ha against AMARE in % [14]	Pre-emergence efficacy against MATIN [17]	Post-emergence efficacy against VIOTR (VIOTR: Viola tricolor [18])	Pre-emergence efficacy against VERPE in % (VERPE: Veronica persica [20])	Post-emergence efficacy against VERPE (VERPE: Veronica persica [21])	Pre-emergence efficacy against DIGSA [22]	Pre-emergence efficacy against SETVI in % (SETVI: Setaria viridis [23])	Post-emergence efficacy against STEME (STEME: Stellaria media [24])	Pre-emergence efficacy against ECHCG [26]	Pre-emergence efficacy against KCHSC (KCHSC: Kochia scoparia [29])	also measured
Cc1cccc(Oc2ncc(F)cn2)c1Cc1ncc(Cl)cn1 [Example 1-65]	100%	90%	100%	100%	90%	100%	100%	100%	100%	100%	100%	100%	100%	100%	100%	100%	100%	100%	100%	100%	Pre-emergence efficacy against DIGSA in % [1]: 90%; Pre-emergence efficacy against LOLRI (LOLRI: Lolium rigidum): 100%; Pre-emergence efficacy against KCHSC in % (KCHSC: Kochia scoparia [5]): 100%; Pre-emergence efficacy against MATIN in % [13]: 100%; Pre-emergence efficacy against ABUTH in % [15]: 90%; Pre-emergence efficacy against SETVI in % (SETVI: Setaria viridis [16]): 90%; Pre-emergence efficacy against ALOMY [19]: 90%; Pre-emergence efficacy against VERPE in % (VERPE: Veronica persica [25]): 100%; Post-emergence efficacy against KCHSC (KCHSC: Kochia scoparia [27]): 100%; Post-emergence efficacy against VERPE (VERPE: Veronica persica [28]): 90%; Pre-emergence efficacy against VIOTR in % (VIOTR: Viola tricolor [30]): 100%
Fc1cnc(Cc2ccccc2Oc2ncc(Cl)cn2)nc1 [Example 1-70]	100%			100%		100%	90%		90%	90%	90%	100%		90%	90%	100%	100%	90%	90%	100%	
N#Cc1cccc(Cc2ncc(F)cn2)c1-n1cc(C(F)(F)F)cn1 [Example 1-131]	100%	100%	100%	100%	90%	100%	100%	100%	90%	90%	100%	100%	90%	100%	100%	100%	100%	100%	100%	100%	Post-emergence efficacy at 1280 g/ha against DIGSA in % [31]: 90%; Post-emergence efficacy against AMARE [32]: 100%; Post-emergence efficacy against KCHSC (KCHSC: Kochia scoparia [27]): 100%; Pre-emergence efficacy against POLCO in % (POLCO): 80%; Pre-emergence efficacy against VIOTR in % (VIOTR: Viola tricolor [30]): 90%
